Reference: US11913032B2, “Compositions of and methods for in vitro viral genome engineering” (C3J Therapeutics, Inc., priority 2014, dated 2024)

System: P. aeruginosa biofilm
Assay: Crystal violet biofilm assay, early (8 h preformed) biofilm disruption
Assay type: cell-based
Settings: biofilm preformed for 8 hours, compared with wild type LUZ19
Method: To validate that a Gp34 L55Δ mutation had improved viral properties, the LUZ19 viral genome was isolated from viral particles. Site-specific digestion was performed using an RNA-dependent nuclease and in vitro transcribed gRNAs to remove the gp34 gene (SEQ ID NO:4). The gp34 L55Δ gene, which harbors a deletion of leucine codon at amino acid position 55 (Gp34 L55Δ, position 163-165 of SEQ ID NO:4) was PCR amplified from a LUZ19 evolved phage. The Gibson Assembly method was used to integrate the PCR amplified gp34 L55Δ gene seamlessly into the digested LUZ19 genome. The in vitro transformed genomes were transformed directly into host cells to yield functional viral particles. The engineered LUZ19 virus harboring Gp34 L55Δ was able to diffuse and lyse bacteria. […] Images were taken and zones of clearing were measured over a two-day period (FIG. 5B). […] Crystal violet biofilm assay measures biofilm accumulation as a measure of the incorporation of crystal violet (FIG. 5C). […]
The LUZ19*LKD16gp18 virus was analyzed for improved viral properties, using double agar plaque, biofilm, and an in vitro human keratinocyte attachment assays. […] Specifically, LUZ19*LKD16gp18 and wild type LUZ19 were incubated with a P. aeruginosa biofilm and disruption was measured using crystal violet. […] The LUZ19*LKD16gp18 virus was analyzed for efficacy of phage treatment against bacteria attached to human keratinocytes. […]

Gentamicin
early biofilm disruption: completely remove biofilm
